Measured values as given in patent US6596733B2, “Use of nitric oxide scavengers to treat side effects caused by therapeutic administration of sources of nitric oxide” (Medinox, Inc., priority 1998, dated 2003).

What was measured:
[1] = 10 mg/ml in drinking water for 14 days
Procedure: (§1) A pressure sensor chip for a telemetric device (Data Scientific International, Saint Paul, Minn.) was implanted in the dorsal abdominal aorta of male Wistar rat (250-280 g). The rats were allowed to recover from the surgery over a period of 24 hours. The implanted rats were separated into two groups (n=3); One received 10 mg/ml of L-proline dithiocarbamate (L-PD) in drinking water and the other received only distilled water for 14 days. […] On average, in the experimental group, each rat received about 800 mg/kg/day for 14 days.

[2] = tested on: rats having physiological levels of nitric oxide; conditions: rat, in vivo
Procedure: as §1

amounts of water consumption, experimental vs control group [1]: no significant difference
weight gain, experimental vs control group [1]: no significant difference
SMILES: NC(=S)S.O=C(O)[C@@H]1CCCN1 [L-PD, L-proline dithiocarbamate]
effect on blood pressure [2]: no effect
effect on heart rate [2]: no effect
